Data taken from patent EP1509285B1, “SYNERGISTIC COMPOSITION OF TRANS-TETRACOS-15-ENOIC ACID AND APOCYNIN AND USE THEREOF” (COUNCIL OF SCIENTIFIC AND INDUSTRIAL RESEARCH, priority 2002, dated 2003).

How the values were obtained:
[1] = system: D-Galactosamine (GAIN) induced hepatic injury; assay: Hepatoprotective activity (in vivo) against D-Galactosamine induced hepatic injury; conditions: rats; for Hepatic parameters Glutathione / Hepatic parameters Lipid peroxidation / Serum parameters ALP / Serum parameters Bilirubin / Serum parameters Triglycerides / Serum parameters GOT / Serum parameters GPT: 50 mg kg-1 p.o. at 48 h, 24h, 2 h before and 6 h after GalN 300 mg kg-1 s.c., mean ± S.E.; for Serum parameters GOT / Serum parameters GPT: unit is µmole pyruvate/min/L; for hepatoprotective activity percent, ALP / hepatoprotective activity percent, Bilirubin / hepatoprotective activity percent, GOT / hepatoprotective activity percent, GPT / hepatoprotective activity percent, Glutathione / hepatoprotective activity percent, Lipid peroxidation / hepatoprotective activity percent, Triglycerides: GalN, 50 mg kg-1 p.o., H = [1-(TC-V/VC-V)] × 100
Experimental: (§1) i. Animals: The pharmacological studies are conducted on Wistar albino rats (150-180g) and Swiss albino mice (25-30g) of either sex, colony - bred in the Institute's animal house. After procurement, all the animals are divided into different groups and are left for one week for acclimatization to experimentation room and are maintained on standard conditions (23±2°C, 60-70 % relative humidity and 12 h photo period). The animals are fed with standard rodents pellet diet and water ad libitum. There are six animals in each group except for general behaviour and acute toxicity studies where ten animals are used in each group.
D-Galactosamine: It is one of the toxins that induce hepatic inflammatory conditions in the rat liver that clinically resembles to viral hepatitis. The mechanism of GalN induced liver injury has been extensively examined and this model is now accepted as one of the authentic systems of liver damage (Bauer et. al., 1974, Al-Tuwaijiri et. al., 1981). (Table1)
Hepatic damage is produced by injecting GalN (300 mg.kg^-1) subcutaneously in normal saline. The control animals received the equal volume of vehicle.
(§2) Freshly prepared suspension (1%, w/v) in 0.2% gum acacia in normal saline is used for all the experiments except for toxicity studies where (10 %, w/v) suspension is used. Silymarin suspension (1%, w/v) in 0.2 % gum acacia is used as a reference standard (positive control).
Blood is collected from orbital sinus in all the animals 18 h after last treatment and serum separated for different estimations. All the animals are then killed by decapitation, their livers are quickly excised, cleaned of adhering tissue, weighed and homogenised in phosphate buffer saline for the analysis of hepatic parameters. A portion of the liver is processed for histopathological studies (Table 1)
(§3) • GPT and GOT: Pyruvate formed by transamination reaction is determined spectrophotometrically after reaction with 2,4-dinitrophenylhydrazine (Reitman and Frankel, 1957). • ALP : p-nitrophenol formed in alkaline medium is measured spectrophotometrically using p-nitrophenyl phosphate as substrate (Walter and Schutt, 1974). • Bilirubin : Total bilirubin is measured by diazotization reaction with NaNO2 (Malloy and Evelyn, 1937) • Triglycerides : Triglycerides from serum are extracted with isopropanol and sopanified with KOH. The liberated glycerol is converted to formaldehyde by periodate and determined after reaction with acetyl acetone. Triolein is used as standard (Neri and Firings, 1973). • Glutathione: It is determined after deproteination by reaction with DTNB (Ellman 1959 as modified by David 1987). • Lipid peroxidation: Thiobarbituric acid reacting substances are determined spectrophotometrically at 535 nm. Buege. and Aust. (1978).
(§4) Hepatoprotective activity (H) is calculated by the following equation: H = [1-(TC-V/VC-V)] × 100 [formula]
(§5) Where TC, VC, and V are drug + toxin, vehicle + toxin and vehicle treated groups of animals respectively.

[2] = system: 'Acetaminophen' (APAP) induced hepatotoxicity; assay: Hepatoprotective activity (in vivo) against acetaminophen (paracetamol) induced hepatotoxicity after diethyl-ether inhalation; conditions: mice; for Serum parameters GOT / Serum parameters GPT: unit is µmole pyruvate/min/L; for hepatoprotective activity percent, ALP / hepatoprotective activity percent, Bilirubin / hepatoprotective activity percent, GOT / hepatoprotective activity percent, GPT / hepatoprotective activity percent, Glutathione / hepatoprotective activity percent, Lipid peroxidation / hepatoprotective activity percent, Triglycerides: APAP, 50 mg kg-1 p.o., H = [1-(TC-V/VC-V)] × 100
Experimental: as §1
Paracetamol (APAP, acetaminophen): It is a therapeutic agent widely used as analgesic/antipyretic drug. When taken in large doses it causes hepatic necrosis which leads to biochemical changes having clinical features similar to those of acute viral hepatitis. The similar effect is observed in animals. The toxic effect can be potentiated if it is given several hours after the anesthetic ether inhalation (Wells et. al., 1986).
Liver injury is induced by injecting paracetamol (200 mg.kg^-1) interaperitoneally in normal saline (pH 9.4) six hour after inhalation of anesthetic ether (4ml/4min/6animals) in a closed chamber. The control animals received the equal volume of vehicle. (Table 2)
as §2
The doses of TCA and APO individually and in mixture, silymarin (50 mg/kg, p.o. each) and vehicle (normal saline) are fed to different groups of mice at 72 hours, 48 hours and 24 hours, 1 hour before diethyl ether inhalation and 1hour after hepatotoxin (paracetamol, 200 mg.kg^-1, i.p.) given 6 hours after exposure to diethyl- ether. Blood is collected from orbital sinus in all the animals 18 hours after last treatment and serum separated for different estimations. A portion of the liver is processed for histopathological studies. (Table 2)
as §3, §4, §5

[3] = system: bile flow and bile solids; assay: Choleretic activity: bile flow and bile solids after bile duct cannulation in normal anaesthetised rats; type: in vivo; conditions: 50 mg kg-1 i.d., bile collected 0-5 hours, mean ±SE
Text: The liver, by producing bile, plays an important role in digestion. The presence of bile in the intestine is necessary to accomplish the digestion and absorption of fats as well as absorption of the fat-soluble vitamins- A, D, E & K. Bile is also an important vehicle of excretion. It removes many drugs, toxins, bile pigments and various inorganic substances either derived from the diet or synthesized by the body as cholesterol or as cholic acid.
Effect on the liver bile flow of test drug and that of vehicle is carried out after cannulating the bile duct in normal anaesthesied rats. Bile collected is from each animal from 0-5 hours (Klaassen, 1969, Donal et al.1953). (Table 5)

[4] = 50 mg kg-1 p.o. at 72 h, 48 h, 24 h, 1h before diethyl-ether and 1 h after APAP 200 mg kg-1 i.p., mean ± S.E.

| Compound | Hepatic parameters Glutathione [1] [µ mole GSH/g liver] | Hepatic parameters Lipid peroxidation [1] [n moles MDA/g liver] | Serum parameters ALP [1] | Serum parameters Bilirubin [1] [mg %] | Serum parameters Triglycerides [1] [mg %] | Serum parameters GOT [1] [Units] | Serum parameters GPT [1] [Units] | hepatoprotective activity percent, ALP [1] | hepatoprotective activity percent, Bilirubin [1] | hepatoprotective activity percent, GOT [1] | hepatoprotective activity percent, GPT [1] | hepatoprotective activity percent, Glutathione [1] | hepatoprotective activity percent, Lipid peroxidation [1] | hepatoprotective activity percent, Triglycerides [1] | Hepatic parameters Glutathione [2, 4] [µ mole GSH/g liver] | Serum parameters ALP [2, 4] | Serum parameters Bilirubin [2, 4] [mg %] | Serum parameters Triglycerides [2, 4] [mg %] | Serum parameters GOT [2, 4] [Units] | Serum parameters GPT [2, 4] [Units] | also measured |
| --- | --- | --- | --- | --- | --- | --- | --- | --- | --- | --- | --- | --- | --- | --- | --- | --- | --- | --- | --- | --- | --- |
| COc1cc(C(C)=O)ccc1O [APO, Apocynin] | 4.52±0.49 | 48.71±3.69 | 37.73±1.64 µ mole of p-nitrophenol formed/min/ L | 0.41±0.02 | 31.85±3.74 | 509.33±41.63 | 859.18±50.51 | (68.76) percent | (41.66) percent | (38.42) percent | (46.59) percent | (21.51) percent | (39.93) percent | (42.95) percent | 4.60±0.42 | 29.71±1.89 µ mole of p-nitroplenol formed/min/ L | 0.43±0.01 | 30.50±1.36 | 755.04±112.04 | 1334.72±98.34 | Hepatic parameters Lipid peroxidation [2, 4]: 48.32±2.13 n moles MDA/g liver; hepatoprotective activity percent, ALP [2]: (67.91) percent; hepatoprotective activity percent, Bilirubin [2]: (42.59) percent; hepatoprotective activity percent, GOT [2]: (36.07) percent; hepatoprotective activity percent, GPT [2]: (42.27) percent; hepatoprotective activity percent, Glutathione [2]: (42.60) percent; hepatoprotective activity percent, Lipid peroxidation [2]: (38.34) percent; hepatoprotective activity percent, Triglycerides [2]: (36.68) percent; Bile parameters % Increase (as compared to normal) Bile flow [3]: 27.39±2.05 ml%; Bile parameters % Increase (as compared to normal) Bile solids [3]: 24.05±2.76 mg% |
| CCCCCCCC/C=C/CCCCCCCCCCCCCC(=O)O [TCA, trans-tetracos-15-enoic acid] | 5.39±0.43 | 42.12±3.93 | 44.16±2.87 µ mole of p-nitrophenol formed/min/ L | 0.29±0.03 | 29.78±2.82 | 421.64±30.36 | 758.59±40.86 | (59.67) percent | (66.66) percent | (52.03) percent | (53.74) percent | (38.84) percent | (59.35) percent | (50.99) percent | 4.59±0.45 | 34.95±1.89 µ mole of p-nitroplenol formed/min/ L | 0.355±0.01 | 23.53±1.77 | 561.83±51.52 | 1008.04±63.66 | hepatoprotective activity percent, ALP [2]: (52.96) percent; hepatoprotective activity percent, Bilirubin [2]: (56.48) percent; hepatoprotective activity percent, GOT [2]: (54.92) percent; hepatoprotective activity percent, GPT [2]: (57.99) percent; hepatoprotective activity percent, Glutathione [2]: (42.35) percent; hepatoprotective activity percent, Lipid peroxidation [2]: (55.48) percent; hepatoprotective activity percent, Triglycerides [2]: (66.05) percent; Bile parameters % Increase (as compared to normal) Bile flow [3]: 08.23±1.71 ml%; Bile parameters % Increase (as compared to normal) Bile solids [3]: 13.40±1.53 mg% |
